The record followed here is patent US4548922A, “Drug administration” (Beth Israel Hospital, priority 1983, dated 1985).

This data set can be described thus: k' factor value (hydrophobicity) by high-performance liquid column chromatography on octadecylsilane column. Conditions: unconjugated steroid; 75% methanol in water, apparent pH 5.0, octadecylsilane column. It counts as physicochemical. The protocol:
Preferably the steroid used in the invention is characterized in that the unconjugated derivative of the steroid is retained on a hydrophobic column for a length of time sufficient to produce a k' factor value of at least 7, the k' factor value being obtained by subjecting a monomeric solution of 1 mg/ml of such steroid derivative to high-performance liquid column chromatography at 3,000 psi, using a 250×4.6 mm column having octadecylsilane-coated 5 μm micro silica particles as the stationary phase and a mobile phase, delivered at 1.0 ml/min., consisting of 75% methanol in water, v/v, buffered with 0.005 M KH2 PO4 /H3 PO4 to give an apparent pH value, as measured using a glass electrode, of 5.0, the k' factor value being defined by k'=(tr -t0)/t0, where t0 is the retention time in the column of the solvent front and tr is the retention time in the column of the steroid derivative as measured by obtaining the elution profile of the steroid derivative by absorbance at 210 nm.
The structure of the steroid molecule affects its chemical properties and thus its functioning as a drug transporting molecule. We believe that all of the steroid molecules used in the invention facilitate transport by self-associating to form reversed micelles within the membrane across which the drug is being transported; these reversed micelles, it is believed, function as pores, allowing the drug to pass through. A measure of the ability of a given steroid molecule's ability to form such reversed micelles is the hydrophobicity of the unconjugated form of the molecule, a property which can be quantified using the k' factor value, which is computed by observing the steroid's retention time in a high-performance liquid chromatography (HPLC) column under the conditions described above. As mentioned above, the k' factor value of the unconjugated derivative of the steroid should be at least 7 for the steroid to be suitable in the therapeutic compositions of the invention.
Regarding `CC(=O)O[C@@H]1[C@H]2[C@H](C)[C@H](O)CC[C@]2(C)[C@@H]2CC[C@H]3/C(=C(\CCC=C(C)C)C(=O)O)[C@@H](OC(C)=O)C[C@]3(C)[C@@]2(C)[C@H]1O` [cephalosporin P1], the “k' factor value” was 9.5. Next, `CC(=O)O[C@H]1C[C@@]2(C)[C@@H](CC[C@H]3[C@@]4(C)C=CC(=O)[C@@H](C)[C@@H]4[C@H](OC(C)=O)C(=O)[C@@]32C)/C1=C(\CCC=C(C)C)C(=O)O` [helvolic acid]: 4.7.

Turning to `C[C@H](CCC(=O)O)[C@H]1CC[C@H]2[C@@H]3[C@@H](O)C[C@@H]4C[C@H](O)CC[C@]4(C)[C@H]3CC[C@]12C` [ursodeoxycholic acid], the “k' factor value” is recorded as 4.7.
